Biological target: T1, Recombinant human LTC4 synthase (Homo sapiens, UniProt Q16873)
T1 construct: made in house; host or cells: Pichia pastoris ('Piccia pastoralis' [sic])
T1 sequence (Q16873 1-150): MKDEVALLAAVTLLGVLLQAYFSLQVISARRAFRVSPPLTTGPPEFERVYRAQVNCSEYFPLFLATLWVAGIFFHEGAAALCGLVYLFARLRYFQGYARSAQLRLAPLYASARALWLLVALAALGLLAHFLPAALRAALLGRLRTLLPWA
Assay: In vitro assay Method B: LTC4 synthase, LTA4 to LTC4, HTRF detection
Format: biochemical
Settings: total concentration of title compound 10 μM, read-out: % inh. of LTC4 synthase
Experimental: In the assay, LTC4 synthase catalyses the reaction where the substrate LTA4 is converted to LTC4. Recombinant human LTC4 synthase is expressed in Piccia pastoralis and the purified enzyme is dissolved in 25 mM Tris-buffer pH 7.8 and stored at −20° C. The assay is performed in phosphate buffered saline (PBS) pH 7.4, supplemented with 5 mM glutathione (GSH). The assay is performed at rt in 384-well plates. Analysis of the formed LTC4 is performed using costume made homogenous time-resolved fluorescence (HTRF) detection (Cisbio).
The following is added chronologically to each well: • 1. 50 μL assay buffer, PBS with 5 mM GSH. • 2. 0.5 μL inhibitor in DMSO. • 3. 2 μl LTC4 synthase in PBS. The total protein concentration in this solution is 0.025 mg/ml. Incubation of the plate at rt for 10 min. • 4. 1-1.5 μL LTA4 (final conc. 2.5 μM). Incubation of the plate at rt for 1 min. 10 μL of the incubation mixture is analysed using HTRF detection.

Row | SMILES | inhibition at 10 µM [%]
1 | CC(C)Oc1ccc(Oc2ccc3c(c2)c(C(=O)O)c(CC(=O)O)n3-c2ccc(OCc3ccccc3Cl)cc2)cc1 [1:3, 2-Carboxymethyl-1-[4-(2-chlorobenzyloxy)phenyl]-5-(4-isopropoxy-phenoxy)indole-3-carboxylic acid] | 95
2 | CC(C)Oc1ccc(Oc2ccc3c(c2)c(C(=O)O)c(CC(=O)O)n3-c2ccc(OCc3ccc(Cl)nc3)cc2)cc1 [1:11, 2-Carboxymethyl-1-[4-(6-chloro-3-pyridinylmethoxy)phenyl]-5-(4-isopropoxyphenoxy)indole-3-carboxylic acid] | 99
3 | O=C(O)Cc1c(C(=O)O)c2cc(Oc3ccc(OC4CC4)cc3)ccc2n1-c1ccc(OC2CCCC2)cc1 [4:4, 2-Carboxymethyl-1-(4-cyclopentyloxyphenyl)-5-(4-cyclopropoxyphenoxy)-indole-3-carboxylic acid] | 98
4 | O=C(O)Cc1c(C(=O)O)c2cc(Oc3ccc(OC4CCCC4)cc3)ccc2n1-c1ccc(OC2CCCC2)cc1 [4:3, 2-Carboxymethyl-5-(4-cyclopentyloxyphenoxy)-1-(4-cyclopentyloxyphenyl)indole-3-carboxylic acid] | 97
5 | CC(C)Oc1ccc(Oc2ccc3c(c2)c(C(=O)O)c(CC(=O)O)n3-c2ccc(OCc3ccc(Cl)c(Cl)c3)cc2)cc1 [1:4, 2-Carboxymethyl-1-[4-(3,4-dichlorobenzyloxy)phenyl]-5-(4-isopropoxyphenoxy)indole-3-carboxylic acid] | 93
6 | CC(C)Oc1ccc(Oc2ccc3c(c2)c(C(=O)O)c(CC(=O)O)n3-c2ccc(Oc3ccccc3Cl)cc2)cc1 [3:4, 2-Carboxymethyl-1-[4-(2-chlorophenoxy)phenyl]-5-(4-isopropoxy-phenoxy)indole-3-carboxylic acid] | 9
7 | O=C(O)Cc1c(C(=O)O)c2cc(Oc3ccc(OC(F)(F)F)cc3)ccc2n1-c1ccc(NCc2cccnc2)cc1 [6:1, 2-Carboxymethyl-1-[4-(3-pyridinylmethylamino)phenyl]-5-(4-trifluoromethoxyphenoxy)indole-3-carboxylic acid] | 100
8 | O=C(O)Cc1c(C(=O)O)c2cc(Oc3ccc(OC(F)(F)F)cc3)ccc2n1-c1ccc(OC2CCCC2)cc1 [4:2, 2-Carboxymethyl-1-(4-cyclopentyloxyphenyl)-5-(4-trifluoromethoxyphenoxy)indole-3-carboxylic acid] | 100
9 | CCN(c1ccc(-n2c(CC(=O)O)c(C(=O)O)c3cc(Oc4ccc(OC(F)(F)F)cc4)ccc32)cc1)c1cccc(C)c1 [6:4, 2-Carboxymethyl-1-{4-[ethyl(m-tolyl)amino]phenyl}-5-(4-trifluoromethoxy-phenoxy)indole-3-carboxylic acid] | 94
10 | CC(C)Oc1ccc(Oc2ccc3c(c2)c(C(=O)O)c(CC(=O)O)n3-c2ccc(Oc3cccc(Cl)c3)cc2)cc1 [3:2, 2-Carboxymethyl-1-[4-(3-chlorophenoxy)phenyl]-5-(4-isopropoxy-phenoxy)indole-3-carboxylic acid] | 97
11 | CC(C)Oc1ccc(Oc2ccc3c(c2)c(C(=O)O)c(CC(=O)O)n3-c2ccc(OCc3cccc(Cl)c3)cc2)cc1 [1:7, 2-Carboxymethyl-1-[4-(3-chlorobenzyloxy)phenyl]-5-(4-isopropoxy-phenoxy)indole-3-carboxylic acid] | 94
12 | CC(C)Oc1ccc(Oc2ccc3c(c2)c(C(=O)O)c(CC(=O)O)n3-c2ccc(OC3CC4CCC3C4)cc2)cc1 (stereo not shown) [5:3, 2-Carboxymethyl-5-(4-isopropoxyphenoxy)-1-[4-(2-norbomanyloxy)-phenyl]indole-3-carboxylic acid] | 95
13 | O=C(O)Cc1c(C(=O)O)c2cc(Oc3ccc(OC(F)(F)F)cc3)ccc2n1-c1ccc(NC2CCCC2)cc1 [6:5, 2-Carboxymethyl-1-(4-cyclopentylaminophenyl)-5-(4-trifluoromethoxy-phenoxy)indole-3-carboxylic acid] | 100
14 | CCN(c1ccccc1)c1ccc(-n2c(CC(=O)O)c(C(=O)O)c3cc(Oc4ccc(OC(F)(F)F)cc4)ccc32)cc1 [6:3, 2-Carboxymethyl-1-{4-[ethyl(phenyl)amino]phenyl}-5-(4-trifluoromethoxy-phenoxy)indole-3-carboxylic acid] | 100
15 | CC(C)Oc1ccc(Oc2ccc3c(c2)c(C(=O)O)c(CC(=O)O)n3-c2ccc(OCc3ccc(Cl)cc3)cc2)cc1 [1:6, 2-Carboxymethyl-1-[4-(4-chlorobenzyloxy)phenyl]-5-(4-isopropoxy-phenoxy)indole-3-carboxylic acid] | 95

More lines, now with the values ahead:

Row | inhibition at 10 µM [%] | SMILES
16 | 95 | O=C(O)Cc1c(C(=O)O)c2cc(Oc3ccc(OC(F)(F)F)cc3)ccc2n1-c1ccc(NCc2ccc(Cl)nc2)cc1 [Example 6:2, 2-Carboxymethyl-1-{4-[(6-chloro-3-pyridinylmethyl)amino]phenyl}-5-(4-trifluoromethoxyphenoxy)indole-3-carboxylic acid]
17 | 96 | Cc1ccc(COc2ccc(-n3c(CC(=O)O)c(C(=O)O)c4cc(Oc5ccc(OC(C)C)cc5)ccc43)cc2)cc1 [Example 1:2, 2-Carboxymethyl-5-(4-isopropoxyphenoxy)-1-(4-(4-methylbenzyloxy)phenyl)indole-3-carboxylic acid]
18 | 97 | CC(C)Oc1ccc(Oc2ccc3c(c2)c(C(=O)O)c(CC(=O)O)n3-c2ccc(OC3CCC(C)(C)CC3)cc2)cc1 [Example 5:1, 2-Carboxymethyl-1-[4-(4,4-dimethylcyclohexyloxy)phenyl]-5-(4-isopropoxyphenoxy)indole-3-carboxylic acid]
19 | 97 | O=C(O)Cc1c(C(=O)O)c2cc(Oc3ccc(OC(F)(F)F)cc3)ccc2n1-c1ccc(NCC2CCCCC2)cc1 [6:6, 2-Carboxymethyl-1-(4-cyclohexylmethylaminophenyl)-5-(4-trifluoro-methoxyphenoxy)indole-3-carboxylic acid]
20 | 98 | CCCCCCCCNc1ccc(-n2c(CC(=O)O)c(C(=O)O)c3cc(Oc4ccc(OC(F)(F)F)cc4)ccc32)cc1 [6:7, 2-Carboxymethyl-1-(4-octylaminophenyl)-5-(4-trifluoromethoxyphenoxy)-indole-3-carboxylic acid]
21 | 100 | O=C(O)Cc1c(C(=O)O)c2cc(Oc3ccc(OC(F)(F)F)cc3)ccc2n1-c1ccc(NCc2ccccc2)cc1 [6:9, 1-(4-benzylaminophenyl)-2-carboxymethyl-5-(4-trifluoromethoxy-phenoxy)indole-3-carboxylic acid]
22 | 97 | O=C(O)Cc1c(C(=O)O)c2cc(Oc3ccc(OC(F)(F)F)cc3)ccc2n1-c1ccc(Nc2cccc3c2CCCC3)cc1 [6:8, 2-Carboxymethyl-1-[4-(5,6,7,8-tetrahydro-1-naphthylamino)phenyl]-5-(4-trifluoromethoxyphenoxy)indole-3-carboxylic acid]

From patent US20120029016A1, “Indoles Useful in the Treatment of Inflammation” (BIOLIPOX AB, priority 2008, published 2012)
